Results on 2 compounds are retold here after patent US9963473B2, “Stabilized form of tetrofosmin and its use” (priority 2014, dated 2018).

Data set [1] in a line: Storage stability of Tetrofosmin x 2 HBF4 (1H and 31P NMR spectra). Type of data set: physicochemical. As to the method: Tetrofosmin x 2 HBF4 was stored at room temperature without protective gas (e. g. argon or nitrogen). In accordance to example 1, the ^1H and ^31P spectra were unchanged after 12 months.
Moreover, Tetrofosmin x 2 HBF4 was heated in a normal atmosphere (with oxygen) at 50° C. for 6 hours.

The nature of data set [2]: Hygroscopicity (open vial, change of weight). It counts as physicochemical. The text has this:
An open vial of Tetrofosmin x 2 HBF4 was stored at room temperature, normal atmosphere and 50% humidity.

With Tetrofosmin x 2 HBF4, in data set [1] (normal atmosphere (with oxygen), 50° C. for 6 hours), the “1H and 31P spectra after heating” value is given as “no sign of degradation”. Besides, the “1H and 31P spectra after storage” value in data set [1] (room temperature, without protective gas, after 12 months) is “unchanged”. Further, the “change of weight (hygroscopicity)” value in data set [2] (open vial, room temperature, normal atmosphere, 50% humidity, after 72 h) is recorded as “no change of weight”.

`CCOCCP(CCOCC)CCP(CCOCC)CCOCC.Cl` [Tetrofosmin hydrochloride, reference compound]: in data set [2] (own experiments of the inventors), the “physical nature / hygroscopicity” value was “oily and hygrospcopic”.
